Among the data in ChEMBL document CHEMBL4665628, “Pyranocarbazole derivatives as potent anti-cancer agents triggering tubulin polymerization stabilization induced activation of caspase-dependent apoptosis and downregulation of Akt/mTOR in breast cancer cells” (Eur J Med Chem, 2019) are IC50 and Activity values, retold here.

pIC50: −log10 of the molar value. Counter-ions that a name gives are not always drawn. Active and inactive are the calls of the source. The calls are words filed in the database; no cut-off is given here.

Experiment [1] deals with HepG2. The experiment in a line: cells. The experiment is classed as functional, cell-based. Particulars: Homo sapiens, HepG2, 24 h.
Description: Anticancer activity against human HepG2 cells assessed as cell growth inhibition measured after 24 hrs by MTT assay
Experiment [2] concerns MDA-MB-231. The experiment in a line: cells. The class given is functional, cell-based. Particulars: Homo sapiens, MDA-MB-231, 24 h.
Description: Anticancer activity against human MDA-MB-231 cells assessed as cell growth inhibition measured after 24 hrs by MTT assay
Experiment [3] relates to PC-3. The experiment in a line: cells. The class given is functional, cell-based. Particulars: Homo sapiens, PC-3, 24 h.
Description: Anticancer activity against human PC-3 cells assessed as cell growth inhibition measured after 24 hrs by MTT assay
In experiment [4] the test system is DLD-1. The experiment in a line: cells. The experiment is classed as functional, cell-based. Particulars: Homo sapiens, DLD-1, 24 h.
Description: Anticancer activity against human DLD-1 cells assessed as cell growth inhibition measured after 24 hrs by MTT assay
The test system of experiment [5] is HEK293. The experiment in a line: cells. The class given is ADME, cell-based. Particulars: Homo sapiens, HEK293, 24 h.
Description: Cytotoxicity against HEK293 cells assessed as cell growth inhibition measured after 24 hrs by MTT assay
For experiment [6], the system named is MCF7. The experiment in a line: cells. The experiment is classed as functional, cell-based. Particulars: Homo sapiens, MCF7, 24 h.
Description: Anticancer activity against human MCF7 cells assessed as cell growth inhibition measured after 24 hrs by MTT assay
Experiment [7] relates to A549. As to the kind of experiment: cells. The class given is functional, cell-based. Particulars: Homo sapiens, A549, 24 h.
Description: Anticancer activity against human A549 cells assessed as cell growth inhibition measured after 24 hrs by MTT assay
Experiment [8] deals with DU-145. As to the kind of experiment: cells. The experiment is classed as functional, cell-based. Particulars: Homo sapiens, DU-145, 24 h.
Description: Anticancer activity against human DU-145 cells assessed as cell growth inhibition measured after 24 hrs by MTT assay
Experiment [9] addresses Tubulin (Homo sapiens) (UniProt P68371+Q9H4B7+P0DPH7+P68366+Q13509+Q71U36+P04350+Q3ZCM7+P07437+P68363+Q9BQE3+Q6PEY2+Q13885+Q9BVA1+Q9BUF5). As to the kind of experiment: Inhibition of tubulin (unknown origin) polymerization assessed as stabilization of microtubules at10 uM measured up to 60 mins in presence of GTP. The class given is protein-complex assay. Particulars: dose 10.0 µM, time min <=60.

The subject of experiment [10] is MDA-MB-231. The experiment in a line: Induction of mitochondrial membrane depolarization in human MDA-MB-231 cells at 10 uM measured after 24 hrs by JC-1 staining based flow cytometry analysis (reference value: 0.89 to 3.24 %). The class given is functional. (In general: A flow cytometer gives signals particle by particle.)
For experiment [11], the system named is DNA. The experiment in a line: Binding affinity to DNA (unknown origin) at 0.1 to 0.2 mM by agarose gel electrophoresis. The experiment is classed as nucleic-acid assay. Particulars: dose mM 0.1-0.2.

In the case of `COc1ccc2[nH]c3c4c(c(C=O)cc3c2c1)OC(C)(C)C=C4` [CLAULANSINE F], the pIC50 (usually −log10 of the IC50, conventionally taken in molar units) in experiment [1] is 4.48; in experiment [2], 5.59; in [3], 4.25; in experiment [4], 4.26; in experiment [5], 5.60; in experiment [6] it was 5.41. Besides, the pIC50 in experiment [7] and in [8] was less than 4.00 each time.

Consider `COc1ccc2c(c1)c1cc(C)c3c(c1n2Cc1ccccc1Br)C=CC(C)(C)O3`, for which the pIC50 was 4.80 in [1]; less than 4.00 in [2]; 4.82 in [3]; less than 4.00 in experiment [4]; less than 4.00 in [5]; 4.23 in experiment [6]. Also, the results for the pIC50 in experiment [7] and in [8] were 4.25 and less than 4.00, respectively.

As for `COc1cc2c3cc(C)c4c(c3n(Cc3cccc(C)c3)c2cc1OC)C=CC(C)(C)O4`, the pIC50 in [1] is 5.02; in experiment [2], 4.55; in experiment [3] it was 4.85; in experiment [4], 4.13; in [5], less than 4.00; in experiment [6], 4.19. For the same compound, the pIC50 in experiment [7] is 4.02; in [8], less than 4.00.

Take `CC(=O)O[C@H]1C(=O)[C@@]2(C)[C@H]([C@H](OC(=O)c3ccccc3)[C@]3(O)C[C@H](OC(=O)[C@H](O)[C@@H](NC(=O)c4ccccc4)c4ccccc4)C(C)=C1C3(C)C)[C@]1(OC(C)=O)CO[C@@H]1C[C@@H]2O`: the result in experiment [9] was Active.

For the compound `COc1cc2c3cc(C)c4c(c3n(Cc3ccccc3Br)c2cc1OC)C=CC(C)(C)O4`, the pIC50 is 5.09 in experiment [1]; 4.44 in experiment [2]; 5.03 in experiment [3]; 4.44 in experiment [4]; less than 4.00 in experiment [5]; 4.15 in experiment [6]. Also, the pIC50 in experiment [7] was 4.61; in [8], 4.44.

In the case of `C=CCn1c2cc(OC)c(OC)cc2c2cc(C)c3c(c21)C=CC(C)(C)O3`, the pIC50 in experiment [1] is 4.37; in experiment [2] it was 4.44; in experiment [3] it was less than 4.00; in experiment [4], 4.12; in experiment [5], less than 4.00; in experiment [6], less than 4.00. The pIC50 in experiment [7] and in experiment [8] was less than 4.00 in each case.

Turning to `CC/C(=C(\c1ccccc1)c1ccc(OCCN(C)C)cc1)c1ccccc1` [TAMOXIFEN CITRATE], the pIC50 in experiment [2] is 4.89; in [3], 4.93; in experiment [5], 4.56; in experiment [6], 5.21; in experiment [8], 4.95.

As to `N#CC(C#N)=NNc1cccc(Cl)c1` [CARBONYL CYANIDE M-CHLOROPHENYLHYDRAZONE], in [10], the Activity worked out at 12.75%.

Take `COc1ccc2c(c1)c1cc(C)c3c(c1n2Cc1cc(F)ccc1F)C=CC(C)(C)O3`: the pIC50 in experiment [1] was 5.04; in [2] it was less than 4.00; in [3], 4.48; in experiment [4], 4.27; in experiment [5] it was less than 4.00; in experiment [6] it was 4.29. Further, the pIC50 in experiment [7] is 4.27; in experiment [8], less than 4.00.

On to `COc1cc2c3cc(C)c4c(c3n(C/C(I)=C\I)c2cc1OC)C=CC(C)(C)O4`, for which the pIC50 in [1] is 4.81; in experiment [2], 5.36; in experiment [3], 5.02; in experiment [4], 5.07; in [5], less than 4.00; in experiment [6], 4.35. The pIC50 in experiment [7] is 4.14; in experiment [8] it was 4.32.

`COc1cccc(Cn2c3cc(OC)c(OC)cc3c3cc(C=O)c4c(c32)C=CC(C)(C)O4)c1`: the pIC50 in experiment [1] is less than 4.00; in experiment [2], less than 4.00; in experiment [3], 4.11; in experiment [4], less than 4.00; in experiment [6], less than 4.00; in [7], less than 4.00. The pIC50 in experiment [8] is less than 4.00.

As to `COc1ccc2c(c1)c1cc(C)c3c(c1n2Cc1cccc(C)c1)C=CC(C)(C)O3`, the pIC50 in experiment [1] was 4.46; in experiment [2], 4.33; in [3], 4.45; in experiment [4], 4.14; in experiment [5], less than 4.00; in [6] it was 4.32. Further, the pIC50 in experiment [7] is 4.45; in experiment [8], 4.25.

In the case of `COc1cc2c3cc(C)c4c(c3n(Cc3ccccc3)c2cc1OC)C=CC(C)(C)O4`, the pIC50 was 4.33 in [1]; 4.55 in experiment [2]; 4.53 in [3]; 4.38 in [4]; less than 4.00 in [5]; 4.14 in [6]. Further, the pIC50 was 4.10 in experiment [7] and less than 4.00 in experiment [8].

As to `COc1cc2c3cc(C=O)c4c(c3n(Cc3cccc(Cl)c3)c2cc1OC)C=CC(C)(C)O4`, the pIC50 in experiment [1] was less than 4.00; in experiment [2], less than 4.00; in experiment [3], 4.15; in experiment [4] it was less than 4.00; in experiment [6], 4.14; in experiment [7], less than 4.00. The pIC50 in experiment [8] is less than 4.00.

For `COc1cc2[nH]c3c4c(c(C=O)cc3c2cc1OC)OC(C)(C)C=C4`, the pIC50 in [1] was 4.45; in experiment [2], 5.08; in [3], 4.56; in [4], less than 4.00; in [5], less than 4.00; in experiment [6], less than 4.00. The pIC50 was 4.47 in experiment [7] and 4.15 in experiment [8].

`C#CCn1c2cc(OC)c(OC)cc2c2cc(C)c3c(c21)C=CC(C)(C)O3`: the pIC50 is 4.41 in [1]; 5.01 in experiment [2]; 4.12 in experiment [3]; less than 4.00 in [4]; less than 4.00 in [5]; less than 4.00 in experiment [6]. Further, the pIC50 in experiment [7] is 4.29; in [8], less than 4.00.

As for `COc1ccc2c(c1)c1cc(C)c3c(c1n2Cc1ccccc1)C=CC(C)(C)O3`, the negative logarithm of the IC50 (pIC50) in experiment [1] is 4.38; in experiment [2], 4.33; in experiment [3] it was 4.13; in experiment [4], 4.28; in experiment [5], less than 4.00; in [6] it was less than 4.00. Moreover, the pIC50 in [7] is 4.19; in experiment [8], less than 4.00.

On to `C#CCn1c2ccc(OC)cc2c2cc(C)c3c(c21)C=CC(C)(C)O3`, for which the pIC50 in [1] is less than 4.00; in experiment [2], 4.28; in [3] it was less than 4.00; in [4], 4.30; in experiment [5], less than 4.00; in experiment [6], less than 4.00. Also, the pIC50 in experiment [7] and in [8] was less than 4.00 throughout.

`COc1cccc(Cn2c3cc(OC)c(OC)cc3c3cc(C)c4c(c32)C=CC(C)(C)O4)c1`: the pIC50 in experiment [1] is 4.38; in [2] it was 4.48; in [3], 4.70; in experiment [4], 4.25; in [6] it was 4.18; in experiment [7], 4.54. The pIC50 in [8] was less than 4.00.

For `COc1cccc2c1C(=O)c1c(O)c3c(c(O)c1C2=O)C[C@@](O)(C(=O)CO)C[C@@H]3O[C@H]1C[C@H](N)[C@H](O)[C@H](C)O1` [DOXORUBICIN], the pIC50 was 5.10 in [1] and 4.99 in experiment [4]. The outcome in experiment [11] was Active.

For `COc1cc2c3cc(C)c4c(c3n(Cc3cc(Cl)ccc3Cl)c2cc1OC)C=CC(C)(C)O4`, the pIC50 in [1] was 4.47; in experiment [2] it was 4.71; in experiment [3], 5.13; in experiment [4], 4.45; in [6] it was 4.53; in experiment [7], 4.83. This compound also gave a pIC50 in experiment [8] of less than 4.00.

On to `COc1ccc2c(c1)c1cc(C=O)c3c(c1n2Cc1ccccc1)C=CC(C)(C)O3`, for which the pIC50 in [1] is 4.37; in [2] it was 4.51; in experiment [3] it was 4.48; in experiment [4], less than 4.00; in experiment [6] it was 4.48; in [7] it was 4.44. Moreover, in experiment [8], the pIC50 is less than 4.00.

Take `COc1ccc2c(c1)c1cc(C)c3c(c1n2Cc1ccc(F)cc1F)C=CC(C)(C)O3`: the negative-log IC50 (pIC50) in [1] was 4.43; in experiment [2] it was 4.63; in experiment [3] it was 4.88; in experiment [4], 4.47; in [5], less than 4.00; in experiment [6], less than 4.00. The pIC50 was 4.06 in [7] and less than 4.00 in experiment [8].
